Results taken from ChEMBL document CHEMBL1151757, “Synthesis, radiosynthesis, and biological evaluation of fluorine-18-labeled 2beta-carbo(fluoroalkoxy)-3beta-(3'-((Z)-2-haloethenyl)phenyl)nortropanes: candidate radioligands for in vivo imaging of the serotonin transporter with positron emission tomography” (J Med Chem, 2008).

What was measured:
[1] = Ratio of drug uptake in frontal lobe to cerebellum in anesthetized cynomolgus monkey after 75 mins postinjection; format: ADME, organism-based, Macaca fascicularis; conditions: in vivo, 1.25 h
[2] = Drug uptake in anesthetized cynomolgus monkey brain frontal lobe after 125 mins postinjection; format: ADME, organism-based, Macaca fascicularis; conditions: in vivo
[3] = Drug uptake in anesthetized cynomolgus monkey brain occipital lobe after 165 mins postinjection; format: ADME, organism-based, Macaca fascicularis; conditions: in vivo, 2.75 h
[4] = Ratio of drug uptake in pons to cerebellum in anesthetized cynomolgus monkey after 175 mins postinjection; format: ADME, organism-based, Macaca fascicularis; conditions: in vivo
[5] = Ratio of drug uptake in medulla to cerebellum in anesthetized cynomolgus monkey after 95 mins postinjection; format: ADME, organism-based, Macaca fascicularis; conditions: in vivo
[6] = Ratio of drug uptake in pons to cerebellum in anesthetized cynomolgus monkey after 18.5 mins postinjection; format: ADME, organism-based, Macaca fascicularis; conditions: in vivo
[7] = Ratio of drug uptake in midbrain to cerebellum in anesthetized cynomolgus monkey after 225 mins postinjection; format: ADME, organism-based, Macaca fascicularis; conditions: in vivo, 3.75 h
Pons [8] = test: Drug uptake in anesthetized cynomolgus monkey brain pons after 12.5 mins postinjection; format: ADME, organism-based, Macaca fascicularis; conditions: in vivo
Caudate [9] = test: Drug uptake in anesthetized cynomolgus monkey brain caudate after 185 mins postinjection; format: ADME, organism-based, Macaca fascicularis, Caudate nucleus; conditions: in vivo
[10] = Ratio of drug uptake in midbrain to cerebellum in anesthetized cynomolgus monkey after 2.5 mins postinjection; format: ADME, organism-based, Macaca fascicularis; conditions: in vivo
Putamen [11] = test: Drug uptake in anesthetized cynomolgus monkey brain putamen after 125 mins postinjection; format: ADME, organism-based, Macaca fascicularis; conditions: in vivo
Caudate [12] = test: Drug uptake in anesthetized cynomolgus monkey brain caudate after 205 mins postinjection; format: ADME, organism-based, Macaca fascicularis, Caudate nucleus; conditions: in vivo
[13] = Drug uptake in anesthetized cynomolgus monkey brain occipital lobe after 3.5 mins postinjection; format: ADME, organism-based, Macaca fascicularis; conditions: in vivo
[14] = Ratio of drug uptake in thalamus to cerebellum in anesthetized cynomolgus monkey after 9.5 mins postinjection; format: ADME, organism-based, Macaca fascicularis; conditions: in vivo
[15] = Drug uptake in anesthetized cynomolgus monkey brain occipital lobe after 205 mins postinjection; format: ADME, organism-based, Macaca fascicularis; conditions: in vivo
Medulla [16] = test: Drug uptake in anesthetized cynomolgus monkey brain medulla after 6.5 mins postinjection; format: ADME, organism-based, Macaca fascicularis; conditions: in vivo
[17] = Ratio of drug uptake in pons to cerebellum in anesthetized cynomolgus monkey after 225 mins postinjection; format: ADME, organism-based, Macaca fascicularis; conditions: in vivo, 3.75 h
[18] = Ratio of drug uptake in frontal lobe to cerebellum in anesthetized cynomolgus monkey after 235 mins postinjection; format: ADME, organism-based, Macaca fascicularis; conditions: in vivo
[19] = Ratio of drug uptake in pons to cerebellum in anesthetized cynomolgus monkey after 125 mins postinjection; format: ADME, organism-based, Macaca fascicularis; conditions: in vivo
[20] = Ratio of drug uptake in midbrain to cerebellum in anesthetized cynomolgus monkey after 235 mins postinjection; format: ADME, organism-based, Macaca fascicularis; conditions: in vivo
Thalamus [21] = test: Drug uptake in anesthetized cynomolgus monkey brain thalamus after 165 mins postinjection; format: ADME, organism-based, Macaca fascicularis; parameters: unit not given here; conditions: in vivo, 2.75 h
Midbrain [22] = test: Drug uptake in anesthetized cynomolgus monkey brain midbrain after 135 mins postinjection; format: ADME, organism-based, Macaca fascicularis; conditions: in vivo, 2.25 h
Medulla [23] = test: Drug uptake in anesthetized cynomolgus monkey brain medulla after 65 mins postinjection; format: ADME, organism-based, Macaca fascicularis; conditions: in vivo
Caudate [24] = test: Drug uptake in anesthetized cynomolgus monkey brain caudate after 175 mins postinjection; format: ADME, organism-based, Macaca fascicularis, Caudate nucleus; conditions: in vivo
Medulla [25] = test: Drug uptake in anesthetized cynomolgus monkey brain medulla after 0.5 mins postinjection; format: ADME, organism-based, Macaca fascicularis; conditions: in vivo
Putamen [26] = test: Drug uptake in anesthetized cynomolgus monkey brain putamen after 205 mins postinjection; format: ADME, organism-based, Macaca fascicularis; conditions: in vivo
[27] = Drug uptake in anesthetized cynomolgus monkey brain cerebellum after 235 mins postinjection; format: ADME, organism-based, Macaca fascicularis; conditions: in vivo
Pons [28] = test: Drug uptake in anesthetized cynomolgus monkey brain pons after 15.5 mins postinjection; format: ADME, organism-based, Macaca fascicularis; conditions: in vivo
[29] = Ratio of drug uptake in medulla to cerebellum in anesthetized cynomolgus monkey after 155 mins postinjection; format: ADME, organism-based, Macaca fascicularis; conditions: in vivo
[30] = Ratio of drug uptake in occipital lobe to cerebellum in anesthetized cynomolgus monkey after 4.5 mins postinjection; format: ADME, organism-based, Macaca fascicularis; conditions: in vivo, 0.075 h
[31] = Drug uptake in anesthetized cynomolgus monkey brain frontal lobe after 195 mins postinjection; format: ADME, organism-based, Macaca fascicularis; conditions: in vivo, 3.25 h
Pons [32] = test: Drug uptake in anesthetized cynomolgus monkey brain pons after 135 mins postinjection; format: ADME, organism-based, Macaca fascicularis; conditions: in vivo, 2.25 h
Caudate [33] = test: Drug uptake in anesthetized cynomolgus monkey brain caudate after 4.5 mins postinjection; format: ADME, organism-based, Macaca fascicularis, Caudate nucleus; conditions: in vivo, 0.075 h
[34] = Ratio of drug uptake in putamen to cerebellum in anesthetized cynomolgus monkey after 45 mins postinjection; format: ADME, organism-based, Macaca fascicularis; conditions: in vivo, 0.75 h
Putamen [35] = test: Drug uptake in anesthetized cynomolgus monkey brain putamen after 215 mins postinjection; format: ADME, organism-based, Macaca fascicularis; conditions: in vivo
[36] = Drug uptake in anesthetized cynomolgus monkey brain occipital lobe after 85 mins postinjection; format: ADME, organism-based, Macaca fascicularis; conditions: in vivo
[37] = Ratio of drug uptake in occipital lobe to cerebellum in anesthetized cynomolgus monkey after 135 mins postinjection; format: ADME, organism-based, Macaca fascicularis; conditions: in vivo, 2.25 h
[38] = Ratio of drug uptake in occipital lobe to cerebellum in anesthetized cynomolgus monkey after 18.5 mins postinjection; format: ADME, organism-based, Macaca fascicularis; conditions: in vivo
Medulla [39] = test: Drug uptake in anesthetized cynomolgus monkey brain medulla after 35 mins postinjection; format: ADME, organism-based, Macaca fascicularis; conditions: in vivo
Caudate [40] = test: Drug uptake in anesthetized cynomolgus monkey brain caudate after 195 mins postinjection; format: ADME, organism-based, Macaca fascicularis, Caudate nucleus; conditions: in vivo, 3.25 h
[41] = Drug uptake in anesthetized cynomolgus monkey brain occipital lobe after 6.5 mins postinjection; format: ADME, organism-based, Macaca fascicularis; parameters: unit not given here; conditions: in vivo
Putamen [42] = test: Drug uptake in anesthetized cynomolgus monkey brain putamen after 155 mins postinjection; format: ADME, organism-based, Macaca fascicularis; conditions: in vivo
[43] = Ratio of drug uptake in occipital lobe to cerebellum in anesthetized cynomolgus monkey after 235 mins postinjection; format: ADME, organism-based, Macaca fascicularis; conditions: in vivo
[44] = Ratio of drug uptake in pons to cerebellum in anesthetized cynomolgus monkey after 185 mins postinjection; format: ADME, organism-based, Macaca fascicularis; conditions: in vivo
Midbrain [45] = test: Drug uptake in anesthetized cynomolgus monkey brain midbrain after 235 mins postinjection; format: ADME, organism-based, Macaca fascicularis; conditions: in vivo
Midbrain [46] = test: Drug uptake in anesthetized cynomolgus monkey brain midbrain after 18.5 mins postinjection; format: ADME, organism-based, Macaca fascicularis; parameters: unit not given here; conditions: in vivo
[47] = Drug uptake in anesthetized cynomolgus monkey brain occipital lobe after 115 mins postinjection; format: ADME, organism-based, Macaca fascicularis; conditions: in vivo
[48] = Ratio of drug uptake in pons to cerebellum in anesthetized cynomolgus monkey after 6.5 mins postinjection; format: ADME, organism-based, Macaca fascicularis; conditions: in vivo
Thalamus [49] = test: Drug uptake in anesthetized cynomolgus monkey brain thalamus after 2.5 mins postinjection; format: ADME, organism-based, Macaca fascicularis; parameters: unit not given here; conditions: in vivo
Pons [50] = test: Drug uptake in anesthetized cynomolgus monkey brain pons after 115 mins postinjection; format: ADME, organism-based, Macaca fascicularis; conditions: in vivo
[51] = Drug uptake in anesthetized cynomolgus monkey brain cerebellum after 95 mins postinjection; format: ADME, organism-based, Macaca fascicularis; conditions: in vivo
[52] = Drug uptake in anesthetized cynomolgus monkey brain cerebellum after 175 mins postinjection; format: ADME, organism-based, Macaca fascicularis; conditions: in vivo
[53] = Drug uptake in anesthetized cynomolgus monkey brain occipital lobe after 135 mins postinjection; format: ADME, organism-based, Macaca fascicularis; conditions: in vivo, 2.25 h
[54] = Drug uptake in anesthetized cynomolgus monkey brain cerebellum after 85 mins postinjection; format: ADME, organism-based, Macaca fascicularis; conditions: in vivo
[55] = Drug uptake in anesthetized cynomolgus monkey brain frontal lobe after 45 mins postinjection; format: ADME, organism-based, Macaca fascicularis; conditions: in vivo, 0.75 h
[56] = Ratio of drug uptake in midbrain to cerebellum in anesthetized cynomolgus monkey after 125 mins postinjection; format: ADME, organism-based, Macaca fascicularis; conditions: in vivo
Thalamus [57] = test: Drug uptake in anesthetized cynomolgus monkey brain thalamus after 145 mins postinjection; format: ADME, organism-based, Macaca fascicularis; parameters: unit not given here; conditions: in vivo
[58] = Ratio of drug uptake in medulla to cerebellum in anesthetized cynomolgus monkey after 12.5 mins postinjection; format: ADME, organism-based, Macaca fascicularis; conditions: in vivo
Putamen [59] = test: Drug uptake in anesthetized cynomolgus monkey brain putamen after 225 mins postinjection; format: ADME, organism-based, Macaca fascicularis; conditions: in vivo, 3.75 h
[60] = Ratio of drug uptake in putamen to cerebellum in anesthetized cynomolgus monkey after 235 mins postinjection; format: ADME, organism-based, Macaca fascicularis; conditions: in vivo
[61] = Drug uptake in anesthetized cynomolgus monkey brain cerebellum after 75 mins postinjection; format: ADME, organism-based, Macaca fascicularis; conditions: in vivo, 1.25 h
Midbrain [62] = test: Drug uptake in anesthetized cynomolgus monkey brain midbrain after 22.5 mins postinjection; format: ADME, organism-based, Macaca fascicularis; parameters: unit not given here; conditions: in vivo, 0.375 h
Pons [63] = test: Drug uptake in anesthetized cynomolgus monkey brain pons after 185 mins postinjection; format: ADME, organism-based, Macaca fascicularis; conditions: in vivo
[64] = Ratio of drug uptake in midbrain to cerebellum in anesthetized cynomolgus monkey after 27.5 mins postinjection; format: ADME, organism-based, Macaca fascicularis; conditions: in vivo
Putamen [65] = test: Drug uptake in anesthetized cynomolgus monkey brain putamen after 4.5 mins postinjection; format: ADME, organism-based, Macaca fascicularis; parameters: unit not given here; conditions: in vivo, 0.075 h
[66] = Ratio of drug uptake in putamen to cerebellum in anesthetized cynomolgus monkey after 165 mins postinjection; format: ADME, organism-based, Macaca fascicularis; conditions: in vivo, 2.75 h

O=C(OCC[18F])C1C2CCC(CC1c1cccc(/C=C\Br)c1)N2 (stereo unspecified)
Ratio [1]: 0.9
Drug uptake [2]: 2.69
Drug uptake [3]: 2.5
Ratio [4]: 1.8
Ratio [5]: 1.5
Ratio [6]: 1.1
Ratio [7]: 2.3
Drug uptake (Pons [8]): 3.52
Drug uptake (Caudate [9]): 3.28
Ratio [10]: 1.3
Drug uptake (Putamen [11]): 4.59
Drug uptake (Caudate [12]): 2.92
Drug uptake [13]: 0.64
Ratio [14]: 0.9
Drug uptake [15]: 2.28
Drug uptake (Medulla [16]): 3.64
Ratio [17]: 1.7
Ratio [18]: 1.2
Ratio [19]: 1.6
Ratio [20]: 2.3
Drug uptake (Thalamus [21]): 3.64
Drug uptake (Midbrain [22]): 4.67
Drug uptake (Medulla [23]): 4.81
Drug uptake (Caudate [24]): 3.29
Drug uptake (Medulla [25]): 0
Drug uptake (Putamen [26]): 3.42
Drug uptake [27]: 1.62
Drug uptake (Pons [28]): 3.73
Ratio [29]: 1.7
Ratio [30]: 0.7
Drug uptake [31]: 2.18
Drug uptake (Pons [32]): 4.26
Drug uptake (Caudate [33]): 1.12
Ratio [34]: 1.3
Drug uptake (Putamen [35]): 3.24
Drug uptake [36]: 3.31
Ratio [37]: 1.1
Ratio [38]: 0.8
Drug uptake (Medulla [39]): 4.97
Drug uptake (Caudate [40]): 3.08
Drug uptake [41]: 2.17
Drug uptake (Putamen [42]): 4.01
Ratio [43]: 1.2
Ratio [44]: 1.9
Drug uptake (Midbrain [45]): 3.76
Drug uptake (Midbrain [46]): 4.16
Drug uptake [47]: 3.02
Ratio [48]: 1
Drug uptake (Thalamus [49]): 0.29
Drug uptake (Pons [50]): 4.51
Drug uptake [51]: 3.05
Drug uptake [52]: 2.03
Drug uptake [53]: 2.78
Drug uptake [54]: 3.17
Drug uptake [55]: 2.85
Ratio [56]: 1.8
Drug uptake (Thalamus [57]): 3.86
Ratio [58]: 1.2
Drug uptake (Putamen [59]): 3
Ratio [60]: 1.8
Drug uptake [61]: 3.3
Drug uptake (Midbrain [62]): 4.28
Drug uptake (Pons [63]): 3.6
Ratio [64]: 1.2
Drug uptake (Putamen [65]): 1.72
Ratio [66]: 1.8
